Laboratory results reported in patent publication US9656992B2, “Pyrimidine compounds for the treatment of hepatitis C” (priority 2013, dated 2017).
Where two headings read alike, the source gives them in different places.

Test system: HCV pseudoparticles, genotype 1a HCV E1 and E2 envelope (H77C isolate)
Test: HCV pseudoparticle infection assay (luciferase reporter, entry into Huh7 cells)
Type: cell-based
Conditions: Hepatitis C virus, Huh-7, 48 h
[1] = read-out: EC50 (nM) 1a (H77C), HCV pseudoparticles genotype 1a (H77C), Huh7 cells, luciferase measured 2 days after infection, average of duplicates
[2] = read-out: EC50 (nM) 1a (H77C), HCV pseudoparticles genotype 1a (H77C), Huh7 cells, luciferase measured 2 days after infection, class symbols

Compound	EC50 [1] [nM]	EC50 [2] [nM]
CC(C)(CNC(=O)C(N)=O)CNC(=O)c1ccc(Nc2cc(NCc3ccc(Cl)cc3)nc(OCC(F)(F)F)n2)nc1 [Example 1001]	1.47	0.01 to 10
CC(C)(CNC(=O)C(=O)Nc1ccccc1)CNC(=O)c1ccc(Nc2cc(NCc3ccc(Cl)cc3)nc(OCC(F)(F)F)n2)nc1 [Example 1002]		0.01 to 10
Cc1ccc(NC(=O)C(=O)NCC(C)(C)CNC(=O)c2ccc(Nc3cc(NCc4ccc(Cl)cc4)nc(OCC(F)(F)F)n3)nc2)cc1 [Example 1003]	0.214	0.01 to 10
CC(C)CNC(=O)C(=O)NCC(C)(C)CNC(=O)c1ccc(Nc2cc(NCc3ccc(Cl)cc3)nc(OCC(F)(F)F)n2)nc1 [Example 1004]		0.01 to 10
CC(C)(CNC(=O)C(=O)NC1CCCCC1)CNC(=O)c1ccc(Nc2cc(NCc3ccc(Cl)cc3)nc(OCC(F)(F)F)n2)nc1 [Example 1005]		0.01 to 10
CN(C)C(=O)C(=O)NCC(C)(C)CNC(=O)c1ccc(Nc2cc(NCc3ccc(Cl)cc3)nc(OCC(F)(F)F)n2)nc1 [Example 1006]		10 to 1000
CC(C)(CNC(=O)C(=O)N1CCc2ccccc2C1)CNC(=O)c1ccc(Nc2cc(NCc3ccc(Cl)cc3)nc(OCC(F)(F)F)n2)nc1 [Example 1007]		0.01 to 10
CC(C)(CNC(=O)C(=O)Nc1ccc(F)cc1F)CNC(=O)c1ccc(Nc2cc(NCc3ccc(Cl)cc3)nc(OCC(F)(F)F)n2)nc1 [Example 1008]		0.01 to 10
CNC(=O)C(=O)NCC(C)(C)CNC(=O)c1ccc(Nc2cc(NCc3ccc(Cl)cc3)nc(OCC(F)(F)F)n2)nc1 [Example 1009]		0.01 to 10
CC(C)(CNC(=O)C(=O)N1CCCCC1)CNC(=O)c1ccc(Nc2cc(NCc3ccc(Cl)cc3)nc(OCC(F)(F)F)n2)nc1 [Example 1010]		10 to 1000
Cc1nnc(NC(=O)C(=O)NCC(C)(C)CNC(=O)c2ccc(Nc3cc(NCc4ccc(Cl)cc4)nc(OCC(F)(F)F)n3)nc2)s1 [Example 1011]		10 to 1000
CC(C)(CNC(=O)C(=O)Nc1ccc(F)cc1)CNC(=O)c1ccc(Nc2cc(NCc3ccc(Cl)cc3)nc(OCC(F)(F)F)n2)nc1 [Example 1012]	0.482	0.01 to 10
CC(C)(CNC(=O)C(=O)Nc1nccs1)CNC(=O)c1ccc(Nc2cc(NCc3ccc(Cl)cc3)nc(OCC(F)(F)F)n2)nc1 [Example 1013]		0.01 to 10
CC(C)(CNC(=O)C(=O)Nc1cccc(F)c1)CNC(=O)c1ccc(Nc2cc(NCc3ccc(Cl)cc3)nc(OCC(F)(F)F)n2)nc1 [Example 1014]		0.01 to 10
Cc1cc(NC(=O)C(=O)NCC(C)(C)CNC(=O)c2ccc(Nc3cc(NCc4ccc(Cl)cc4)nc(OCC(F)(F)F)n3)nc2)no1 [Example 1015]	1.31	0.01 to 10
CC(C)(CNC(=O)C(=O)Nc1nncs1)CNC(=O)c1ccc(Nc2cc(NCc3ccc(Cl)cc3)nc(OCC(F)(F)F)n2)nc1 [Example 1016]	56.8	10 to 1000
CC(C)(CNC(=O)C(=O)N1CCOCC1)CNC(=O)c1ccc(Nc2cc(NCc3ccc(Cl)cc3)nc(OCC(F)(F)F)n2)nc1 [Example 1017]	26.8	10 to 1000
CC(C)(CNC(=O)C(=O)NCc1ccc(F)cc1)CNC(=O)c1ccc(Nc2cc(NCc3ccc(Cl)cc3)nc(OCC(F)(F)F)n2)nc1 [Example 1018]		0.01 to 10
CC(C)(CNC(=O)C(=O)Nc1cc(F)cc(F)c1)CNC(=O)c1ccc(Nc2cc(NCc3ccc(Cl)cc3)nc(OCC(F)(F)F)n2)nc1 [Example 1019]		10 to 1000
CC(C)(CNC(=O)C(=O)Nc1ccc(Cl)cc1)CNC(=O)c1ccc(Nc2cc(NCc3ccc(Cl)cc3)nc(OCC(F)(F)F)n2)nc1 [Example 1020]		0.01 to 10
